Measured values as given in patent US11505521B2 (Biothea Pharma, Inc., priority 2018, dated 2022).
Where two headings read alike, the source gives them in different places.

Legend:
[1] = physchem; conditions: n-octanol / pH 3.47 buffer
Procedure: (§1) The tests were conducted using Sartorius balances (Model SQP), a Thermo HPLC (UltiMate 3000 System, UV Wavelength: 205 nm), and Phenomenex Luna columns (5 μm C18 (2), 4.6×250 mm). The column temperature was 40° C. and the autosampler temperature was room temperature. The injection volume was 5 μL.
(§2) Mobile Phase A was prepared by weighing 4.0 g tetramethylammonium bisulfate (MERYER, Batch No. 77957139) and 1.1 sodium 1-heptasulfonate (Admas-beta, Batch No. P1343755), and transferring the materials to a flask. 2 mL of 0.1 mol/L EDTA solution (Brand: Sinopharm Chemical Reagent Co., Ltd., Batch No. 20150410) was added to the flask and the volume was adjusted to 950 mL using water. The solution was mixed and adjusted to a pH of 3.5 with 0.1N sodium hydroxide solution (Brand: Enox, Batch No. 20161201). Mobile Phase B was prepared using ethanol. The isocratic elution was used in a proportion of A/B of 85/15. The run time was 8 minutes.
A hydrogen disodium phosphate solution was prepared by weighing 7.1 g of hydrogen disodium phosphate (Brand: Sinopharm Chemical Reagent Co., Ltd., Batch No. 20150910). A citric acid solution was prepared by weighing 5.25 g of hydrated citric acid (Brand: General-Reagent, Batch No. 5949-29-1) and dissolving it in 1000 mL of water. A pH 3.47 buffer solution was prepared by adjusting the pH of the hydrogen disodium phosphate solution to 3.47 with the citric acid solution. An n-octanol buffer solution was prepared by mixing 100 mL of n-octanol (Brand: Chinasun Specialty Products Co., Ltd., Batch No. 20160601) and 100 mL of the pH 3.47 buffer solution, vibrated for 24 hours, which sat for an hour to separate the n-octanol phase and the pH 3.47 buffer phase.
10 mg of the sample was dissolved in 10 mL of the saturated n-octanol solution and mixed completely. 10 mL of the saturated pH 3.47 buffer solution was added and vortexed at 3000 r/min for 1 hour. 1 mL of solution was pipetted from the n-octanol and pH 3.47 phase after an hour. A standard solution was prepared containing 1 mg/mL of the standard in diluent. An LOQ solution was prepared from about 0.1% of the standard solution. An n-octanol phase solution was diluted with 1 mL of methanol to test. The pH 3.47 phase solution was injected directly. The partition coefficient was calculated using the following formula:
[formula] wherein Co is the equilibrium concentration of solute in oil phase, and Cw is the equilibrium concentration of solute in water phase.

[2] = Procedure: The stability of the pharmaceutical compositions of Example 3 were tested. The stability studies were conducted on packaged epinephrine salts at 25° C./RH 60% and 40° C./RH 75% conditions, as well as samples without packaging and exposed to light (4500 Lux) for one month. The appearance, assay content, and related substances were examined at 5, 7, 14 and 30 days.
as §1, with “assay content was tested” for “tests were conducted”, “SQP), an INESA pH meter (Model PHS-3E),” for “SQP),”, “C.,” for “C.”
as §2, with “using methanol.” for “using ethanol.”, “was 10” for “was 8”
The assay content was analyzed by dissolving 20 mg of each sample to be examined in 50 mL of Mobile Phase A (0.4 mg/mL) as assay test solution. The sample was used and tested right after it was ready and was protected from light.
The purity was tested using Sartorius balances (Model SQP), an INESA pH meter (Model PHS-3E), a Thermo HPLC (UltiMate 3000 System, UV Wavelength: 205 nm), and PhenomenexSynergi columns (4 μm Polar-RP 80 A 250×4.6 mm). The column temperature was 30° C., and the autosampler temperature was room temperature. The injection volume was 5 μL.
Mobile Phase A was prepared by weighing 1.136 g of potassium dihydrogen orthophosphate (Brand: CNW, Batch No. A1040040) and 1.74 g of dipotassium hydrogen orthophosphate (Brand: Ourchem, Batch No. 20160219) and transferring into 1000 mL of water. The pH was adjusted to 3.0±0.05 with orthophosphoric acid (Brand: Ourchem, Batch No. 4112K060). The solution was filtered through a 0.45 μm membrane and degassed. Mobile Phase B was prepared using methanol. The run time was 50 minutes.
The purity was analyzed by dissolving 10 mg of each sample to be examined in 25 mL of Mobile Phase A (0.4 mg/mL) as purity and related substance test solution. The sample was used and tested right after it was ready and was protected from light.

[3] = light 4500 Lux, under air, 0 days
[4] = light 4500 Lux, under air, 5 days
[5] = light 4500 Lux, under air, 7 days
[6] = light 4500 Lux, under air, 14 days
[7] = light 4500 Lux, under air, 30 days

CNC[C@H](O)c1ccc(O)c(O)c1 [epinephrine bitartrate]
LogP ([1]; pH 3.47): -2.95
Appearance ([2]; 25° C./60% RH, 0 days): Off-white
Content (%) ([2]; 25° C./60% RH, 0 days): 100.00%
Related substance (%) ([2]; 25° C./60% RH, 0 days): 0.08%
Appearance ([2]; 25° C./60% RH, 5 days): Off-white
Content (%) ([2]; 25° C./60% RH, 5 days): 100.05%
Related substance (%) ([2]; 25° C./60% RH, 5 days): 0.08%
Appearance ([2]; 25° C./60% RH, 7 days): Off-white
Content (%) ([2]; 25° C./60% RH, 7 days): 100.83%
Related substance (%) ([2]; 25° C./60% RH, 7 days): 0.08%
Appearance ([2]; 25° C./60% RH, 14 days): Off-white
Content (%) ([2]; 25° C./60% RH, 14 days): 99.82%
Related substance (%) ([2]; 25° C./60% RH, 14 days): 0.09%
Appearance ([2]; 25° C./60% RH, 30 days): Off-white
Content (%) ([2]; 25° C./60% RH, 30 days): 100.33%
Related substance (%) ([2]; 25° C./60% RH, 30 days): 0.09%
Appearance ([2]; 40° C./75% RH, 0 days): Off-white
Content (%) ([2]; 40° C./75% RH, 0 days): 100.00%
Related substance (%) ([2]; 40° C./75% RH, 0 days): 0.08%
Appearance ([2]; 40° C./75% RH, 5 days): Off-white
Content (%) ([2]; 40° C./75% RH, 5 days): 100.43%
Related substance (%) ([2]; 40° C./75% RH, 5 days): 0.09%
Appearance ([2]; 40° C./75% RH, 7 days): Off-white
Content (%) ([2]; 40° C./75% RH, 7 days): 100.84%
Related substance (%) ([2]; 40° C./75% RH, 7 days): 0.09%
Appearance ([2]; 40° C./75% RH, 14 days): Off-white
Content (%) ([2]; 40° C./75% RH, 14 days): 100.17%
Related substance (%) ([2]; 40° C./75% RH, 14 days): 0.09%
Appearance ([2]; 40° C./75% RH, 30 days): Off-white
Content (%) ([2]; 40° C./75% RH, 30 days): 100.96%
Related substance (%) ([2]; 40° C./75% RH, 30 days): 0.10%
Appearance [2, 3]: Off-white
Content (%) [2, 3]: 100.00%
Related substance (%) [2, 3]: 0.08%
Appearance [2, 4]: Off-white
Content (%) [2, 4]: 99.71%
Related substance (%) [2, 4]: 0.10%
Appearance [2, 5]: Off-white
Content (%) [2, 5]: 102.34%
Related substance (%) [2, 5]: 0.10%
Appearance [2, 6]: Off-white
Content (%) [2, 6]: 100.43%
Related substance (%) [2, 6]: 0.09%
Appearance [2, 7]: Off-white
Content (%) [2, 7]: 100.39%
Related substance (%) [2, 7]: 0.09%

CNC[C@H](O)c1ccc(O)c(O)c1 [epinephrine malonate]
LogP [1]: −3.00
Appearance ([2]; 25° C./60% RH, 0 days): Off-white
Content (%) ([2]; 25° C./60% RH, 0 days): 100.00%
Related substance (%) ([2]; 25° C./60% RH, 0 days): 0.01%
Appearance ([2]; 25° C./60% RH, 5 days): Off-white
Content (%) ([2]; 25° C./60% RH, 5 days): 99.94%
Related substance (%) ([2]; 25° C./60% RH, 5 days): 0.02%
Appearance ([2]; 25° C./60% RH, 7 days): Off-white
Content (%) ([2]; 25° C./60% RH, 7 days): 99.62%
Related substance (%) ([2]; 25° C./60% RH, 7 days): 0.02%
Appearance ([2]; 25° C./60% RH, 14 days): Off-white
Content (%) ([2]; 25° C./60% RH, 14 days): 98.81%
Related substance (%) ([2]; 25° C./60% RH, 14 days): 0.05%
Appearance ([2]; 25° C./60% RH, 30 days): Off-white
Content (%) ([2]; 25° C./60% RH, 30 days): 100.64%
Related substance (%) ([2]; 25° C./60% RH, 30 days): 0.05%
Appearance ([2]; 40° C./75% RH, 0 days): Off-white
Content (%) ([2]; 40° C./75% RH, 0 days): 100.00%
Related substance (%) ([2]; 40° C./75% RH, 0 days): 0.01%
Appearance ([2]; 40° C./75% RH, 5 days): Off-white
Content (%) ([2]; 40° C./75% RH, 5 days): 100.25%
Related substance (%) ([2]; 40° C./75% RH, 5 days): 0.03%
Appearance ([2]; 40° C./75% RH, 7 days): Off-white
Content (%) ([2]; 40° C./75% RH, 7 days): 101.64%
Related substance (%) ([2]; 40° C./75% RH, 7 days): 0.02%
Appearance ([2]; 40° C./75% RH, 14 days): Off-white
Content (%) ([2]; 40° C./75% RH, 14 days): 99.63%
Related substance (%) ([2]; 40° C./75% RH, 14 days): 0.08%
Appearance ([2]; 40° C./75% RH, 30 days): Off-white
Content (%) ([2]; 40° C./75% RH, 30 days): 99.87%
Related substance (%) ([2]; 40° C./75% RH, 30 days): 0.11%
Appearance [2, 3]: Off-white
Content (%) [2, 3]: 100.00%
Related substance (%) [2, 3]: 0.01%
Appearance [2, 4]: Off-white
Content (%) [2, 4]: 99.81%
Related substance (%) [2, 4]: 0.03%
Appearance [2, 5]: Off-white
Content (%) [2, 5]: 98.76%
Related substance (%) [2, 5]: 0.03%
Appearance [2, 6]: Off-white
Content (%) [2, 6]: 99.83%
Related substance (%) [2, 6]: 0.06%
Appearance [2, 7]: Off-white
Content (%) [2, 7]: 100.64%
Related substance (%) [2, 7]: 0.04%

epinephrine maleate
LogP [1]: −3.01
Appearance ([2]; 25° C./60% RH, 0 days): Off-white
Content (%) ([2]; 25° C./60% RH, 0 days): 100.00%
Related substance (%) ([2]; 25° C./60% RH, 0 days): 0.17%
Appearance ([2]; 25° C./60% RH, 5 days): Off-white
Content (%) ([2]; 25° C./60% RH, 5 days): 99.50%
Related substance (%) ([2]; 25° C./60% RH, 5 days): 0.18%
Appearance ([2]; 25° C./60% RH, 7 days): Off-white
Content (%) ([2]; 25° C./60% RH, 7 days): 99.97%
Related substance (%) ([2]; 25° C./60% RH, 7 days): 0.17%
Appearance ([2]; 25° C./60% RH, 14 days): Off-white
Content (%) ([2]; 25° C./60% RH, 14 days): 99.43%
Related substance (%) ([2]; 25° C./60% RH, 14 days): 0.16%
Appearance ([2]; 25° C./60% RH, 30 days): Off-white
Content (%) ([2]; 25° C./60% RH, 30 days): 100.69%
Related substance (%) ([2]; 25° C./60% RH, 30 days): 0.17%
Appearance ([2]; 40° C./75% RH, 0 days): Off-white
Content (%) ([2]; 40° C./75% RH, 0 days): 100.00%
Related substance (%) ([2]; 40° C./75% RH, 0 days): 0.17%
Appearance ([2]; 40° C./75% RH, 5 days): Off-white
Content (%) ([2]; 40° C./75% RH, 5 days): 99.30%
Related substance (%) ([2]; 40° C./75% RH, 5 days): 0.17%
Appearance ([2]; 40° C./75% RH, 7 days): Off-white
Content (%) ([2]; 40° C./75% RH, 7 days): 97.76%
Related substance (%) ([2]; 40° C./75% RH, 7 days): 0.18%
Appearance ([2]; 40° C./75% RH, 14 days): Off-white
Content (%) ([2]; 40° C./75% RH, 14 days): 99.24%
Related substance (%) ([2]; 40° C./75% RH, 14 days): 0.16%
Appearance ([2]; 40° C./75% RH, 30 days): Off-white
Content (%) ([2]; 40° C./75% RH, 30 days): 100.19%
Related substance (%) ([2]; 40° C./75% RH, 30 days): 0.16%
Appearance [2, 3]: Off-white
Content (%) [2, 3]: 100.00%
Related substance (%) [2, 3]: 0.17%
Appearance [2, 4]: Off-white
Content (%) [2, 4]: 99.86%
Related substance (%) [2, 4]: 0.18%
Appearance [2, 5]: Off-white
Content (%) [2, 5]: 100.61%
Related substance (%) [2, 5]: 0.19%
Appearance [2, 6]: Off-white
Content (%) [2, 6]: 99.84%
Related substance (%) [2, 6]: 0.16%
Appearance [2, 7]: Off-white
Content (%) [2, 7]: 100.47%
Related substance (%) [2, 7]: 0.17%
